From ChEMBL document CHEMBL1201862, “PubChem BioAssay data set” (2004) come the findings set out here.

Activity calls are given as the source filed them.

One assay concerns the target T1, Protein skinhead-1 (Caenorhabditis elegans, UniProt P34707).
T1 sequence (P34707 whole entry): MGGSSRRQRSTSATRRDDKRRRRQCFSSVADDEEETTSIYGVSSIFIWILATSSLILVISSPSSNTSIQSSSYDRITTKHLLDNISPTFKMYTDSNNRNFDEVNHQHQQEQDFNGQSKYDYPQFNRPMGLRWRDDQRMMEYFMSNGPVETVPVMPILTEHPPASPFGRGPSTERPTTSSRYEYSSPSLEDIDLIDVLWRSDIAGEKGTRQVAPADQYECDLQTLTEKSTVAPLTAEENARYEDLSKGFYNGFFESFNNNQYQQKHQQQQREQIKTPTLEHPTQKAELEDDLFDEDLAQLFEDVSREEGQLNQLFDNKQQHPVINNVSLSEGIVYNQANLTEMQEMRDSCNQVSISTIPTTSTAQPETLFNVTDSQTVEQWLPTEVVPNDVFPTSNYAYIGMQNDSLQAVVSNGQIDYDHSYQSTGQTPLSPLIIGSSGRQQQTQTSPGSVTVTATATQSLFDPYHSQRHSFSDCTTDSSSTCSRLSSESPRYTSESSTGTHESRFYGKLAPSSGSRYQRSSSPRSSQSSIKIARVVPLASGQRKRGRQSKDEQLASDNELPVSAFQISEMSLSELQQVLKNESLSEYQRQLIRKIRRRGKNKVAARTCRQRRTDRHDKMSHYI
The class given is functional.

The target in assay [1] is T2, Rac GTPase-activating protein 1 (Homo sapiens, UniProt Q9H0H5).
T2 sequence (Q9H0H5 whole entry): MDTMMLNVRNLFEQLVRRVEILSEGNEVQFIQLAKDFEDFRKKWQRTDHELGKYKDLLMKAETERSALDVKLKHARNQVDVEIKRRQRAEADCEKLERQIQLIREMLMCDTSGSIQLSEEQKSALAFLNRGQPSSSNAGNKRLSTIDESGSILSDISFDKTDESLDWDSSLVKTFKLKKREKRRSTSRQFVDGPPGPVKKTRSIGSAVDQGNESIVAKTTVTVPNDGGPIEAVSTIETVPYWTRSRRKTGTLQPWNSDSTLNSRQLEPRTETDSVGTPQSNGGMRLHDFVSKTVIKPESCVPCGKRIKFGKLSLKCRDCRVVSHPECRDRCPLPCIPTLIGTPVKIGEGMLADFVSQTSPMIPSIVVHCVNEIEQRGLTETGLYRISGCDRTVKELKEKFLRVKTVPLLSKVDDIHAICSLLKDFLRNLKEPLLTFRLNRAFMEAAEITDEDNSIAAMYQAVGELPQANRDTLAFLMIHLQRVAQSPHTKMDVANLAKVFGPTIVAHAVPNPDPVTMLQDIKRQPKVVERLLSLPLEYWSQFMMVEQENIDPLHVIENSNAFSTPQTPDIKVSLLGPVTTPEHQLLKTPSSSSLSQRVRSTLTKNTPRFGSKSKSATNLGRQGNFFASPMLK
The assay is described as follows: blockers of MgcRacGAP-driven Rac1 GTP hydrolysis – biochemical, ADP Hunter fluorescence, primary and confirmatory, confirmation (AID 624330). The class given is functional.

Assay [2] relates to Streptococcus sp. 'group A'. The assay is described as follows: Streptococcus pyogenes SK(-)GAS viability under kanamycin – luminescence, BacTiterGlo, confirmation, counter-screen for streptokinase expression inhibitor project, dose response (AID 1900). Type of assay: functional, organism-based.
The target of a further assay is T3, Streptokinase A (Streptococcus pyogenes serotype M1, UniProt P10520).
T3 sequence (P10520 whole entry): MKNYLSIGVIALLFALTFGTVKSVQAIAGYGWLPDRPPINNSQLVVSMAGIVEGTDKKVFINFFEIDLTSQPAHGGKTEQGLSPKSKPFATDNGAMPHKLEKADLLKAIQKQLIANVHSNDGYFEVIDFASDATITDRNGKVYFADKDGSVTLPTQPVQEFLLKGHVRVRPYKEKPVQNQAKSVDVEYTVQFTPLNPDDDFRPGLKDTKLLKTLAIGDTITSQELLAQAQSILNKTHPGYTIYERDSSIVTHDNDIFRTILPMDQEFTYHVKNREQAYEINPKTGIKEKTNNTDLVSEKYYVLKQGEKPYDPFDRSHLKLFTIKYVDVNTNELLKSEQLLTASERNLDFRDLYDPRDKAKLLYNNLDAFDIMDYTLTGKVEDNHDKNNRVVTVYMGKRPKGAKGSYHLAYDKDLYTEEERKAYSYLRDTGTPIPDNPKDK
Kind of assay: viability-normalized secreted streptokinase activity reduction – plasminogen activation absorbance, OD405, dose response (AID 1914).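 Note: secreted streptokinase activity via plasminogen activation per viability signal from cell pellet.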 The class given is functional, Streptococcus pyogenes M1 GAS.

Another assay relates to Streptococcus. The assay is described as follows: GAS UMAA2166 growth inhibition – luminescence, BacTiterGlo, counter-screen for streptokinase expression inhibitor project, dose response (AID 1915).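 Note: potency for reduction of bacterial viability or growth.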 The class given is functional, organism-based.
Assay [3] in a line: viability of uninfected HEp-2 cells – cell-based, HTS, cytotoxicity control for RSV inhibitor project, dose response (AID 2410). Type of assay: functional. The note with it: human respiratory syncytial virus.
For a further assay, the target named is T4, Cytochrome P450 1A2 (Homo sapiens, UniProt P05177).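 Note: PubChem cytochrome P450 panel assay, CYP1A2 panel member.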
T4 sequence (P05177 whole entry): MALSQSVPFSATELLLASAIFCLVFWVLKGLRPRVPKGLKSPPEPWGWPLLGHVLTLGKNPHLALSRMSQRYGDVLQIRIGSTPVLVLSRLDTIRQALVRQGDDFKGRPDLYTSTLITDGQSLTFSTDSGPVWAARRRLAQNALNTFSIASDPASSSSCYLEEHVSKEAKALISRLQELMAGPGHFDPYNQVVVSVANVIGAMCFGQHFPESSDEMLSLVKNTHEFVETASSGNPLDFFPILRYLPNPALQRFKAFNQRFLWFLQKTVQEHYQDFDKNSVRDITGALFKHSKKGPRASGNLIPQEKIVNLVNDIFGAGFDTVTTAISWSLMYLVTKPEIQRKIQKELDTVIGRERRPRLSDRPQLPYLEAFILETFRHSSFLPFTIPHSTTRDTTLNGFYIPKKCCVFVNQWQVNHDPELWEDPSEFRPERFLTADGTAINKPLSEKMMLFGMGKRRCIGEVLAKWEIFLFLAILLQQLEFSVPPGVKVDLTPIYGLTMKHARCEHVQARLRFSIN

The next assay has as its target Cytochrome P450 2C19 (Homo sapiens, UniProt P33261). The assay is described as follows: Cytochrome panel assay with activity outcomes. Panel member name: p450-cyp2c19 Compounds with AC50 equal or less than 10 uM are considered active. The class given is functional. The note with it: read-out: AC50.
A further assay has as its target Cytochrome P450 2C9 (Homo sapiens, UniProt P11712).
The target in a further assay is Cytochrome P450 3A4 (Homo sapiens, UniProt P08684).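 Note: CYP3A4 tested as one member of a cytochrome P450 panel screen.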
The next assay has as its system H4. Kind of assay: Luminescence Cell-Based Dose Response HTS to Identify Activators of 5'UTR Stem-Loop Driven Prion Protein mRNA Translation in H4 Neuroglioblastoma Cells. [Related pubchem assays: 1829 (Project Summary), 1814 (Primary HTS)]. Type of assay: functional. The note with it: Homo sapiens.
The nature of assay [4]: Luminescence Cell-Based Dose Response HTS to Identify Activators of Luciferase Translation or Activity in H4 […] Cells. [Related pubchem assays: 1829 (Project Summary), 1814 (Primary HTS)]. The class given is functional.
Assay [5] deals with Luciferin 4-monooxygenase (Photinus pyralis, UniProt P08659). The assay is described as follows: inhibition of purified Photinus pyralis luciferase – biochemical, luminescence, dose response (AID 1891).
The nature of assay [6]: Luminescence Cell-Based Dose Confirmation HTS to Identify Inhibitors of Platelet Dense Granule Release. [Related pubchem assays: 1663 (Primary HTS), 1678 (Summary of Project)]. Type of assay: functional.

Cytochrome P450 2C19, sequence (P33261 whole entry): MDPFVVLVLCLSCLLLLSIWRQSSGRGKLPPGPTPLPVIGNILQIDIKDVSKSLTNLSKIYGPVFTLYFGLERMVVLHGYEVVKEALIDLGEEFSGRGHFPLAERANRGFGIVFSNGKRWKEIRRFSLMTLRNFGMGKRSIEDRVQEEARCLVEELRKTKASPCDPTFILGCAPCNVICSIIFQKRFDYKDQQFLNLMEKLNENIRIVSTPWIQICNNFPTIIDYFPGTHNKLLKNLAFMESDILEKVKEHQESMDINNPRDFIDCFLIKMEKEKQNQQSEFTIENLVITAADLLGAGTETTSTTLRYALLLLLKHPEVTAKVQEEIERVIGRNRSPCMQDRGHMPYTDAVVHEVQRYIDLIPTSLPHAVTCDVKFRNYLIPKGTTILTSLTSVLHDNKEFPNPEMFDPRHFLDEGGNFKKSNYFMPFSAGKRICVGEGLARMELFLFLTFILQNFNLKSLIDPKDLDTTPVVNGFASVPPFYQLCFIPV
Cytochrome P450 2C9, sequence (P11712 whole entry): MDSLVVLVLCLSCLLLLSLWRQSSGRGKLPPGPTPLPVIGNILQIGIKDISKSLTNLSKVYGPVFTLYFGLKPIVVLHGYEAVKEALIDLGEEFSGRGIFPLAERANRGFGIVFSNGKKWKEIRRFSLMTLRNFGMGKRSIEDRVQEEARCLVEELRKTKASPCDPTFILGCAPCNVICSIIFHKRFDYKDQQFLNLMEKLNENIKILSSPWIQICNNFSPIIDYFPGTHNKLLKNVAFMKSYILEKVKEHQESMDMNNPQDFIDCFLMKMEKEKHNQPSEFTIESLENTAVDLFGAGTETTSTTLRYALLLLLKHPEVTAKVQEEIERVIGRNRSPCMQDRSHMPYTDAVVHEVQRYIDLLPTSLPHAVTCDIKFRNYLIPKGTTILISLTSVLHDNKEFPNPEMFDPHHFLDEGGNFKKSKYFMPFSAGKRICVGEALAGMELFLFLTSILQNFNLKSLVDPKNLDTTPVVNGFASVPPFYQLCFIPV
Cytochrome P450 3A4, sequence (P08684 whole entry): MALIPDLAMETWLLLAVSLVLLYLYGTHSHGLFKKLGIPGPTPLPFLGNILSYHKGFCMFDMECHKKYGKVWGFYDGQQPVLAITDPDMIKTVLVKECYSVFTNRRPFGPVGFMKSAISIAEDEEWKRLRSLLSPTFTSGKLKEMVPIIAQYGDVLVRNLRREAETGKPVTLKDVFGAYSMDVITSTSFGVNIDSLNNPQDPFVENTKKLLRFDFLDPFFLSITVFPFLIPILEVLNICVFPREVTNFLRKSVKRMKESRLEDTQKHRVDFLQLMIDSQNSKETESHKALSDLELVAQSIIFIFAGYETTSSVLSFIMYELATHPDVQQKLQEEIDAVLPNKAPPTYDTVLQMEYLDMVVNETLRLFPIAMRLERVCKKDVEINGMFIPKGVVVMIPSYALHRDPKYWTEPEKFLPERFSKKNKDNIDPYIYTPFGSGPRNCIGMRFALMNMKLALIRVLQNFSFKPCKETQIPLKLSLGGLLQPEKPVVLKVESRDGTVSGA
Luciferin 4-monooxygenase, sequence (P08659 whole entry): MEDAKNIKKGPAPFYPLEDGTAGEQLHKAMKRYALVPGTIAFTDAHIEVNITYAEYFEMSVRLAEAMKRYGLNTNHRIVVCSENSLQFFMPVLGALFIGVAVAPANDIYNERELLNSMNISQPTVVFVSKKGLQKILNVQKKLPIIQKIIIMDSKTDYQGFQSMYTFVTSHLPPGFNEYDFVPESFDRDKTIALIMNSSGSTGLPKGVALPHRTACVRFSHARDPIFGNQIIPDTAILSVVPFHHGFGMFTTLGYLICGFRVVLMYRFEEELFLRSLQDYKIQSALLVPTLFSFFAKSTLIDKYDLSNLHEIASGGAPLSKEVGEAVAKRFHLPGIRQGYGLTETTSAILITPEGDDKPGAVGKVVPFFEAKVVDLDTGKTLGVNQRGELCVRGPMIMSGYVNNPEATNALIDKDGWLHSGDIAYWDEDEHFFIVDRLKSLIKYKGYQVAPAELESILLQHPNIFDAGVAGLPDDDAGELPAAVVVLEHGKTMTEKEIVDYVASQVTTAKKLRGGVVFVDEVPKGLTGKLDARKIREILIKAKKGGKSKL

Consider `Cc1[nH]c2ccccc2c1SCc1ccccc1`, for which the 50% inhibitory concentration (IC50) on Protein skinhead-1 is 42.6 µM (active).
As to `COc1ccc(NS(=O)(=O)c2cccc(C(=O)NN=Cc3ccc(O)c(OC)c3)c2)cc1`, in [1], the IC50 is 79.4 µM (active).
Take `COc1ccc(C2CC(c3ccccc3)=NN2C(=O)c2cccs2)cc1` (stereo not drawn): the results for the EC50 (in assay [2]; at Streptokinase A; in the assay on Streptococcus) were 4.88 µM (active), > 150 µM (not active) and 12.4 µM (active), respectively. In addition, the IC50 at Protein skinhead-1 is > 100 µM (inactive).
As for `Cc1cc(Nc2ccccc2C(=O)O)n(-c2cccc(Cl)c2)n1`, in assay [3], the CC50 was 30.9 µM (active).
As for `CCOC(=O)C1CCCN(C2=NC(=O)/C(=C/c3ccc(O)c(OCC)c3)S2)C1` (stereo not drawn), the IC50 in [1] was 26.5 µM (active).
In the case of `Cn1nccc1C(=O)N1CCC(Cc2ccccc2)CC1`, at Protein skinhead-1, the IC50 was > 100 µM (inactive).
Regarding `CC(C)C(c1nnnn1Cc1ccco1)N1CCN(C2CCCC2)CC1` (stereo not drawn), the IC50 at Protein skinhead-1 is > 100 µM (inactive).
For `CCOC(=O)Nc1ccc(NCc2ccc(F)cc2)nc1N` [FLUPIRTINE], the AC50 at Cytochrome P450 1A2 is 39.8 µM (inconclusive); at Cytochrome P450 2C19, 25.1 µM (inconclusive); on Cytochrome P450 2C9, 25.1 µM (inconclusive).
Consider `O=C(c1ccncc1)N1CCC2(CC1)CCN(C(c1ccccc1)c1ccccc1)CC2`, for which the AC50 at Cytochrome P450 1A2 is 12.6 µM (inconclusive); on Cytochrome P450 2C19 it was 39.8 µM (inconclusive); on Cytochrome P450 2C9 it was 12.6 µM (inconclusive).
For the compound `CC(C)CCNC(=O)NC(=O)COc1c(F)c(F)cc(F)c1F`, on Protein skinhead-1, the IC50 was > 100 µM (inactive).
With `Cn1c(=O)c(-c2cc(F)cc(F)c2)nc2cnc(N3CCNCC3)nc21`, the AC50 at Cytochrome P450 2C9 is 25.1 µM (inconclusive); at Cytochrome P450 3A4, 31.6 µM (inconclusive).
In the case of `Cc1ccc(NCCC(=O)c2ccc(Cl)cc2)cc1`, the AC50 is 3.98 µM (inconclusive) on Cytochrome P450 2C9 and 12.6 µM (inconclusive) on Cytochrome P450 3A4.
Regarding `O=S(=O)(c1ccccc1C(F)(F)F)N1CCC(c2nc(O)c3nnn(Cc4cccc(F)c4)c3n2)CC1`, the CC50 in [3] is 32.2 µM (active).
Same read-out and setting: to `Cc1ccc2c(c1)CCCN2C(=O)CSc1ccccc1` belongs 47.2 µM (active).
For `O=c1cc(CN2CCOCC2)c2ccc(O)c(O)c2o1`, in assay [1], the IC50 is 82.7 µM (active).
With `CC1Cc2ccccc2N1S(=O)(=O)c1cccc(C(=O)NC2CC2)c1` (stereo not drawn), the CC50 in assay [3] was > 50 µM (active).
Consider `O=C(c1cccc(F)c1)N1CCN(C2CCCCC2)CC1`, for which the IC50 in assay [1] was 116 µM (active).
Take `Nc1ccc(/N=N\c2ccc(-c3ccc(O)cc3)cc2)c2ccc(S(=O)(=O)O)cc12`: the AC50 at Cytochrome P450 2C19 was 6.31 µM (inconclusive); at Cytochrome P450 2C9, 5.01 µM (inconclusive).
As for `CC(=O)N1CCN(c2ccc(NCc3ccc(C(C)C)cc3)cc2)CC1`, the IC50 on Protein skinhead-1 was > 100 µM (inactive); in assay [1] it was 10.4 µM (active).
For the compound `CN1/C(=C\C(=O)Nc2cccc(Cl)c2)C(C)(C)c2ccccc21`, at Protein skinhead-1, the IC50 was > 100 µM (inactive).
The same measure, in the same setting: to `COc1ccccc1C(=O)Nc1ccc2c(c1)nc(CCNC(=O)c1ccccc1)n2C` belongs > 100 µM (inactive).
As to `C/C(=N\NC(=O)C1CC1)c1ccc(Cl)c(Cl)c1`, the CC50 in assay [3] is > 50 µM (active).
Take `CCCCNc1cc(=O)oc2ccccc12`: the AC50 is 6.31 µM (inconclusive) at Cytochrome P450 2C9 and 17.8 µM (inconclusive) at Cytochrome P450 3A4.
For the compound `O=C1C=C(c2ccc3ncccc3c2)C[C@@H](c2ccc(F)cc2)C1`, the CC50 in assay [3] was 30 µM (active).
With `O=C(Nc1ccc2c(c1)CCC2)c1ccc(Cl)nc1`, the CC50 in assay [3] was 36.7 µM (active).
On to `CCCCCOC(=O)c1ccc(NC(=O)c2ccco2)cc1`, for which, on Protein skinhead-1, the IC50 is > 100 µM (inactive).
The same measure, in the same setting: the same measure for `CCc1ccc(Nc2oc(C)cc(=O)c2C(C)=O)cc1`: > 100 µM (inactive).
With `COc1ccc2nc(-c3ccc(Cl)cc3)cc(C(=O)O)c2c1`, the CC50 in assay [3] is 19.9 µM (active).
Consider `CCCS(=O)(=O)N1CCN(C2CCC(C)CC2)CC1` (stereo not drawn), for which the IC50 in assay [1] is 232 µM (active).
Regarding `CC1=N/C(=C\c2ccc([N+](=O)[O-])cc2)C(=O)N1c1ccc(Br)c(C)c1`, the figures for the AC50 on Cytochrome P450 1A2 and on Cytochrome P450 2C9 were 5.62 µM (inconclusive) and 7.94 µM (inconclusive), respectively.
Consider `CSCC[C@H](N)C(=O)N1CCC(C(=O)N[C@@H](Cc2c[nH]c3ccccc23)C(=O)O)CC1`, for which, on Protein skinhead-1, the IC50 is > 100 µM (inactive).
`Fc1ccc(N2CCN(c3cnc4ccccc4n3)CC2)cc1`: the EC50 was 12.8 µM (active) with H4 and 0.244 µM (active) in assay [4]. The IC50 at Protein skinhead-1 is 72.8 µM (inactive).
Consider `O=C(NCc1ccco1)c1sc2cc(Cl)ccc2c1Cl`, for which, at Protein skinhead-1, the IC50 is > 100 µM (inactive).
Still for that read-out and setting: the same measure for `O=S(=O)(Cc1ccc(Cl)cc1)Oc1ccc(Cl)cc1`: > 100 µM (inactive).
Turning to `Cc1ccc(C2(C)NC(=O)N(CC(=O)Nc3cc(C)on3)C2=O)cc1` (stereo not drawn), the values for the AC50 on Cytochrome P450 2C9 and on Cytochrome P450 3A4 were 14.1 µM (inconclusive) and 25.1 µM (inconclusive), respectively.
On to `O=c1cnc2cncnc2n1Cc1ccccc1`, for which the values for the AC50 at Cytochrome P450 2C19, on Cytochrome P450 2C9 and at Cytochrome P450 3A4 were 39.8 µM (inconclusive), 31.6 µM (inconclusive) and 20 µM (inconclusive), respectively.
As for `COc1ccc(NCCC(O)c2ccc(Cl)cc2)cc1` (stereo not drawn), in [1], the IC50 is 29.1 µM (active).
On to `COc1cc(/C=N/NC(=O)/C(=C/c2ccccc2)CCO)ccc1O`, for which the EC50 in assay [5] was > 112 µM (not active); in assay [6], 11.1 µM (active). Moreover, the IC50 in assay [1] is 35.7 µM (active).
